For this test, the target named is Tyrosine-protein kinase JAK2 (Homo sapiens, UniProt O60674). The test can be described thus: Inhibition of recombinant GST tagged JAK2 after 60 mins by Caliper mobility shift assay.

As a reminder, the IC50 is the midpoint of a concentration-inhibition curve.

The structures appear in SMILES notation.

Chain of Tyrosine-protein kinase JAK2 (O60674 whole entry): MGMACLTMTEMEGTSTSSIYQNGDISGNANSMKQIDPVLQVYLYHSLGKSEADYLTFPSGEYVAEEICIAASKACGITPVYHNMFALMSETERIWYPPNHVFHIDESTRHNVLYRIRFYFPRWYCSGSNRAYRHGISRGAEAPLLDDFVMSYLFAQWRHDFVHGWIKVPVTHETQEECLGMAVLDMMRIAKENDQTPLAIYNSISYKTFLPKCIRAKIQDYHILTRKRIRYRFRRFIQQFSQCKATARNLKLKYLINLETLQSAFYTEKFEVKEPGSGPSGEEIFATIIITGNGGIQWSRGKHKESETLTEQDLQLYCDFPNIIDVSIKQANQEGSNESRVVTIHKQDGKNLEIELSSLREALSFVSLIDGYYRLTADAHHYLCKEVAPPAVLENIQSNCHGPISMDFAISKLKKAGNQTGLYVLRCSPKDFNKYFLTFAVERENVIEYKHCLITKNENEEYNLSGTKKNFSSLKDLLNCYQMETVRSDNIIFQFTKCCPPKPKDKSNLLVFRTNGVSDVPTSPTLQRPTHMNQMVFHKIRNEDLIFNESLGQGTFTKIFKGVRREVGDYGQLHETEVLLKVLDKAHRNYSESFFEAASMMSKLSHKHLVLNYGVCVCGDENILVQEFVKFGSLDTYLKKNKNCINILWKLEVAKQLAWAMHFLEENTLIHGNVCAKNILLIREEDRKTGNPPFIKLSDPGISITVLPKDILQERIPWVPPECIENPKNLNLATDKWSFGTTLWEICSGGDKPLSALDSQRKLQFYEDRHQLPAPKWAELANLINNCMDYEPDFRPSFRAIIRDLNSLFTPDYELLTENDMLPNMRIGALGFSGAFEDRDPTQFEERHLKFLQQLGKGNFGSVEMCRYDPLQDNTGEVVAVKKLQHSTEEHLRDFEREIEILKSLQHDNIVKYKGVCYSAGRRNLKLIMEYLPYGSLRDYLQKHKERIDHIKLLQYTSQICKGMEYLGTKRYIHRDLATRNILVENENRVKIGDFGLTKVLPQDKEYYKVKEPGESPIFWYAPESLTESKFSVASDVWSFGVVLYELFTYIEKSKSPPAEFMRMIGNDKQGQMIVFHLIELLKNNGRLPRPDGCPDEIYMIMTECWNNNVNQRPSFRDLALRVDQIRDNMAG

As to `COc1cc(Nc2ncc3ccn(-c4ccccn4)c3n2)cc(OC)c1OC`, the IC50 was 5.9 nM.

(Values after ChEMBL document CHEMBL1155411, “Design of two new chemotypes for inhibiting the Janus kinase 2 by scaffold morphing” (Bioorg Med Chem Lett, 2010).)
